# From patent US10538516B2, “Oxadiazole derivative and pharmaceutical containing same” (National Center for Geriatrics and Gerontology, priority 2015, dated 2020)
# Like-named read-outs stand apart in the source and are kept apart here.
# Target: T1, GAβ-dependent amyloid fibril formation (Human Aβ1-40 + GM1-containing liposome) (Homo sapiens, UniProt P05067)
# T1 construct: Human Aβ1-40 (cat. #4307-v, prepared by Peptide Institute); purchased Peptide Institute 4307-v
# Test: Thioflavin T (ThT) assay of GAβ-dependent amyloid fibril formation (Aβ1-40 with GM1-containing liposome)
# Type: biochemical
# Outline: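 Human Aβ1-40 (75 μM stock) pre-incubated 10 min at room temperature with compound (75 or 15 μM solution), then GM1-containing cholesterol/sphingomyelin liposome added and incubated 37° C, 18 hours. Fibrils quantified by ThT fluorescence (ex 430/em 490 nm, pH 8.5 glycine buffer); inhibition as ratio to compound-free control.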
# [1] = inhibition rate against amyloid fibril formation, final concentration of the compound 25 μM, read-out: Inhibitory activity ABC evaluation
# [2] = @25 μM, read-out: ThT Inhibitory activity (% inhibition)
# T1 sequence (P05067 672-711 limits assumed): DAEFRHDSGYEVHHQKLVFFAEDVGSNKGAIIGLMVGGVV
inhibition at 25 µM [1] [%],Structure (SMILES),further results
40 to 80,"O=C(NCC(CO)c1nc(-c2ccc(C(F)(F)F)cc2)no1)c1ccc(F)cc1 (stereo not shown) [Compound 151, 4-fluoro-N-(3-hydroxy-2-{3-[4-(trifluoro-methyl)phenyl]-1,2,4-oxadiazol-5-yl}propyl)benzamide]",–
40 to 80,"O=C(N[C@@H](CO)c1nc(-c2ccc(C(F)(F)F)cc2)no1)c1ccc(N2CCOCC2)cc1 [Compound 200, N-[(1S)-2-hydroxy-1-{3-[4-(trifluoromethyl)phenyl]-1,2,4-oxadiazol-5-yl}ethyl]-4-(morpholin-4-yl) benzamide]",–
< 40,"CN(C(=O)c1ccc(Cl)cc1)C(C)(C)c1nc(-c2ccc(OC(F)(F)F)cc2)no1 [Compound 21, 4-chloro-N-methyl-N-(2-{3-[4-(trifluoromethoxy)phenyl]-1,2,4-oxadiazole-5-yl}propan-2-yl)benzamide]",–
< 40,"O=C(N[C@@H](CO)c1nnc(-c2ccc(O)c(F)c2)o1)c1ccc(Cl)cc1 [Compound 120, (S)-4-chloro-N-(1-(5-(3-fluoro-4-hydroxyphenyl)-1,3,4-oxadiazol-2-yl)-2-hydroxy-ethyl)benzamide]",–
> 80,O=C(N[C@@H](CO)c1nc(-c2cccc(C(F)(F)F)c2)no1)c1ccc(N2CCOCC2)cc1 [Compound 220],–
40 to 80,"O=C1CC(c2nc(-c3ccc(OC(F)(F)F)cc3)no2)CN1c1ccc(Cl)cc1 (stereo not drawn) [Compound 23, l-(4-chlorophenyl)-4-[3-{4-(trifluoromethoxy)phenyl}-1,2,4-oxadiazol-5-yl]pyrrolidin-2-one]",–
40 to 80,"O=C(N[C@@H](CO)c1nc(-c2c[nH]c3ccc(Cl)cc23)no1)c1ccc(N2CCCC2)cc1 [Compound 253, N-[(1S)-1-[3-(5-chloro-1H-indol-3-yl)-1,2,4-oxadiazol-5-yl]-2-hydroxyethyl]-4-(pyrrolidin-1-yl) benzamide]",–
40 to 80,"O=C1CC(c2nc(-c3ccc(OC(F)(F)F)cc3)no2)CN1c1ccc(Cl)cn1 (stereo not shown) [Compound 49, 1-(5-chloropyridin-2-yl)-4-[3-{4-(trifluoro-methoxy)phenyl}-1,2,4-oxadiazol-5-yl] pyrrolidin-2-one]",–
> 80,"O=C(N[C@@H](CO)c1nc(-c2ccc(F)cc2)no1)c1ccc(F)cc1 [Compound 172, 4-fluoro-N-[(1S)-1-[3-(4-fluorophenyl)-1,2,4-oxadiazol-5-yl]-2-hydroxyethyl] benzamide]",inhibition at 25 µM [2]: 91%
40 to 80,"O=C(Cc1c[nH]c2ccccc12)NC(CO)c1nc(-c2ccc(C(F)(F)F)cc2)no1 (stereo not shown) [Compound 185, N-(2-hydroxy-1-{3-[4-(trifluoromethyl)phenyl]-1,2,4-oxadiazol-5-yl}ethyl)-2-(1H-indol-3-yl)acetamide]",–
40 to 80,"O=C(N[C@@H](CO)c1nc(-c2ccc(C(F)(F)F)cn2)no1)c1ccc(F)cc1 [Compound 204, 4-fluoro-N-[(1S)-2-hydroxy-1-{3-[5-(trifluoromethyl)pyridin-2-yl]-1,2,4-oxadiazol-5-yl}ethyl]benzamide]",–
> 80,"O=C(N[C@@H](CO)c1nc(-c2cc3cc(F)ccc3[nH]2)no1)c1ccc(F)cc1 [Compound 267, 4-fluoro-N-[(1S)-1-[3-(5-fluoro-1H-indol-2-yl)-1,2,4-oxadiazol-5-yl]-2-hydroxyethyl] benzamide]",–
40 to 80,"O=C(NC(CO)(CO)c1nc(-c2ccc(OC(F)(F)F)cc2)no1)c1ccc(Cl)cc1 [Compound 102, 4-chloro-N-(1,3-dihydroxy-2-{3-[4-(trifluoromethoxy)phenyl]-1,2,4-oxadiazol-5-yl}propan-2-yl)benzamide]",–
40 to 80,O=C(N[C@@H](CO)c1nc(-c2csc(Cl)c2)no1)c1ccc(F)cc1 [Compound 227],–
–,CCN(C)C(=O)Oc1ccc(-c2noc([C@H](CO)NC(=O)c3ccccc3)n2)cc1 [Compound 159],inhibition at 25 µM (read-out: Inhibitory activity ABC evaluation): < 40%
< 40,"N#Cc1ccc(N2CC(c3nc(-c4ccc(O)cc4)no3)CC2=O)cc1 (stereo not shown) [Compound 79, 4-[4-{3-(4-hydroxyphenyl)-1,2,4-oxadiazol-5-yl}-2-oxopyrrolidin-1-yl]benzonitrile]",–
40 to 80,"Oc1ccc(-c2noc(C(O)Cc3c[nH]c4ccccc34)n2)cc1 (stereo not shown) [Compound 89, 4-[5-{1-hydroxy-2-(1H-indol-3-yl)ethyl}-1,2,4-oxadiazol-3-yl]phenol]",–
40 to 80,"CC(=O)c1ccc(-c2noc([C@H](CO)NC(=O)c3ccccc3)n2)cc1 [Compound 153, N-[(1S)-1-[3-(4-acetylphenyl)-1,2,4-oxadiazol-5-yl]-2-hydroxyethyl] benzamide]",inhibition at 25 µM [2]: 76%
> 80,"O=C(N[C@@H](CO)c1nc(-c2ccc(C(F)(F)F)s2)no1)c1ccc(F)cc1 [Compound 210, 4-fluoro-N-[(1S)-2-hydroxy-1-{3-[5-(trifluoromethyl)thiophen-2-yl]-1,2,4-oxadiazol-5-yl}ethyl] benzamide]",–
40 to 80,"O=C(NC(CO)c1nc(-c2ccc(C(F)(F)F)cc2)no1)c1n[nH]c2ccccc12 (stereo not shown) [Compound 186, N-(2-hydroxy-1-{3-[4-(trifluoromethyl)phenyl]-1,2,4-oxadiazol-5-yl}ethyl)-1H-indazole-3-carboxamide]",–
< 40,"NC[C@H](NC(=O)c1ccccc1)c1nc(-c2ccc(OC(F)(F)F)cc2)no1 [Compound 149, N-[(1S)-2-amino-1-{3-[4-(trifluoromethoxy)phenyl]-1,2,4-oxa-diazol-5-yl}ethyl] benzamide]",–
40 to 80,"O=C(N[C@H](CO)c1nc(-c2ccc(C(F)(F)F)cc2)no1)c1ccc(F)cc1 [Compound 212, 4-fluoro-N-[(1R)-2-hydroxy-1-{3-[4-(trifluoromethyl)phenyl]-1,2,4-oxadiazol-5-yl}ethyl]benzamide]",–
40 to 80,"O=C(N[C@@H](CO)c1nc(-c2cccc(C(F)(F)F)c2)no1)c1cc2ccccc2[nH]1 [Compound 223, N-[(1S)-2-hydroxy-1-{3-[3-(trifluoromethyl)phenyl]-1,2,4-oxadiazol-5-yl}ethyl]-1H-indole-2-carboxamide]",–
40 to 80,"O=C(NC(CO)c1nc(-c2ccc(C(F)(F)F)cc2)no1)c1cccc2cc[nH]c12 (stereo not shown) [Compound 184, N-(2-hydroxy-1-{3-[4-(trifluoromethyl)phenyl]-1,2,4-oxadiazol-5-yl}ethyl)-1H-indole-7-carboxamide]",–
> 80,"Cc1ccc(-c2noc([C@H](CO)NC(=O)c3ccccc3)n2)cc1 [Compound 143, N-[(1S)-2-hydroxy-1-[3-(4-methylphenyl)-1,2,4-oxadiazol-5-yl]ethyl]benzamide]",–

Structure (SMILES),inhibition at 25 µM [1] [%],further results
"NC(Cc1c[nH]c2ccccc12)c1nc(-c2ccc3c(c2)OC(F)(F)O3)no1 (stereo not shown) [Compound 40, 1-{3-(2,2-difluorobenzo[d] [1,3]dioxol-5-yl)-1,2,4-oxadiazol-5-yl}-2-(1H-indol-3-yl)ethan-1-amine]",> 80,"inhibition at 5 µM (@5 μM, read-out: ThT Inhibitory activity (% inhibition)): 38%; inhibition at 25 µM [2]: 80%"
"C[Si](C)(C)c1ccc(-c2noc([C@H](CO)NC(=O)c3ccc(F)cc3)n2)cc1 [Compound 224, 4-fluoro-N-[(1S)-2-hydroxy-1-{3-[4-(trimethylsilyl)phenyl]-1,2,4-oxadiazol-5-yl}ethyl]benzamide]",> 80,–
